These results are taken from patent publication US20250312462A1, “PAK1 DEGRADERS AND METHODS OF USE THEREOF” (INSTITUTE FOR CANCER RESEARCH D/B/A THE RESEARCH INSTITUTE …, priority 2022, published 2025).

The target of one test is PAK4 (Homo sapiens, UniProt O96013). In words: Z'-LYTE FRET kinase inhibition assay. Further details: purchased Invitrogen. Format: biochemical. From the text:
[…]. […] […].

Test [1] addresses T1, PAK1 (Homo sapiens, UniProt Q13153). In words: Z'-LYTE FRET kinase inhibition assay. Further details: human recombinant PAK1 (kinase domain); purchased Invitrogen PV2830. As to conditions: for PAK1 inhibitory activity and selectivity of conjugate: vs PAK2 and PAK4. It counts as biochemical. The method, then:
The activity/inhibition of human recombinant PAK1 (kinase domain) or PAK2 (full length) was determined by measuring the phosphorylation of a FRET peptide substrate (Ser/Thr19) labeled with Coumarin and Fluorescein using Z′-LYTE™ assay (Invitrogen). The 10 μL assay mixtures contained 50 mM HEPES (pH 7.5), 0.01% Brij-35, 10 mM MgCl2, 1 mM EGTA, 2 μM FRET peptide substrate, and PAK enzyme (20 pM PAK1; 50 pM PAK2). Incubations were carried out at 22° C. in black polypropylene 384-well plates (Corning Costar). […] Following the 60-minute incubation, the assay mixtures were quenched by the addition of 5 μL of Z′-LYTE™ development reagent, and 1 hour later the emissions of Coumarin (445 nm) and Fluorescein (520 nm) were determined after excitation at 400 nm using an Envision plate reader (Perkin Elmer).
Target sequence in this assay (Q13153 270-521 limits assumed): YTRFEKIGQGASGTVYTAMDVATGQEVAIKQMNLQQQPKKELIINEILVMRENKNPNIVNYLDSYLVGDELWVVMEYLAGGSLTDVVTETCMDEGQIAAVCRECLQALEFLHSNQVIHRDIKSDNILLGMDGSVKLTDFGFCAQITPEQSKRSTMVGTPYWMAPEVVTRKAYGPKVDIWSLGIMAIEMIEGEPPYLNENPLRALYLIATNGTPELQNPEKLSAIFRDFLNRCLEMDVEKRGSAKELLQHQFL

The target of test [2] is T2, PAK2 (Homo sapiens, UniProt Q13177). In words: Z'-LYTE FRET kinase inhibition assay. Format: biochemical. Further details: PAK2 (full length); purchased Invitrogen PV4565. The method, then: The activity/inhibition of human recombinant PAK1 (kinase domain) or PAK2 (full length) was determined by measuring the phosphorylation of a FRET peptide substrate (Ser/Thr19) labeled with Coumarin and Fluorescein using Z′-LYTE™ assay (Invitrogen). The 10 μL assay mixtures contained 50 mM HEPES (pH 7.5), 0.01% Brij-35, 10 mM MgCl2, 1 mM EGTA, 2 μM FRET peptide substrate, and PAK enzyme (20 pM PAK1; 50 pM PAK2). Incubations were carried out at 22° C. in black polypropylene 384-well plates (Corning Costar). Prior to the assay, enzyme, FRET peptide substrate and serially diluted test compounds were preincubated together in assay buffer (7.5 μL) for 10 minutes, and the assay was initiated by the addition of 2.5 μL assay buffer containing 4×ATP (160 μM PAK1; 480 μM PAK2). Following the 60-minute incubation, the assay mixtures were quenched by the addition of 5 μL of Z′-LYTE™ development reagent, and 1 hour later the emissions of Coumarin (445 nm) and Fluorescein (520 nm) were determined after excitation at 400 nm using an Envision plate reader (Perkin Elmer). […].

A further test deals with MCF7 cells. As to the kind of experiment: Cell proliferation, MTT assay. Format: cell-based. As to conditions: MCF7 cells. The method, then: Cell proliferation was assessed by MTT assay.
Cell viability was measured by MTT assay and the half maximal inhibitory concentration (IC50) was calculated using GraphPad Prism. Triplicates were performed for each sample and medium alone was used as a blank.
The anti-proliferative effects of PAK1 degradation and inhibition were evaluated.
On the technique in general: Tetrazolium dyes change colour on reduction, which living cells bring about.

The test system of a further test is OVCAR3 cells. In words: Cell proliferation, MTT assay. Format: cell-based. Conditions: OVCAR3 cells. The method, then: […]. Cell proliferation was assessed by MTT assay. […].
Cells were plated at 2×10^3 cells per well in 96-well plates overnight and treated with various concentrations of Pak degraders for 72 hours. Cell viability was measured by MTT assay and the half maximal inhibitory concentration (IC50) was calculated using GraphPad Prism. Triplicates were performed for each sample and medium alone was used as a blank.
The anti-proliferative effects of PAK1 degradation and inhibition were evaluated. […]. […] […]. […] […].

Test [3] concerns the target T1, PAK1. In words: PAK1 degradation in MCF7 and OVCAR3 cells, immunoblot. Further details: endogenous in cells; host or cells: MCF7, OVCAR3. Format: cell-based. Conditions: MCF7 and OVCAR3 cells. As for the experimental part:
Protein lysates were harvested at the times specified.
Cell lysates were obtained by centrifugation at 13,500 rpm for 15 minutes at 4° C. BCA protein assay (Thermo Scientific) was used to determine protein concentration then equal amounts of total proteins were separated by SDS-PAGE (Bio-Rad) and transferred to PVDF membrane (Thermo Scientific) at 100V for 2 hours. Membranes were blocked in 5% (w/v) non-fat dry milk in tris-buffered saline with 0.1% Tween-20 (TBS-T) for 1 hour and incubated with primary antibody at 4° C. for overnight. Membranes were washed with TBS-T on the next day and incubated with HRP-conjugated secondary antibodies (Millipore) at room temperature for 1 hour and exposed to films after washing.
Target sequence in this assay (Q13153 whole entry, the tested form may be a part): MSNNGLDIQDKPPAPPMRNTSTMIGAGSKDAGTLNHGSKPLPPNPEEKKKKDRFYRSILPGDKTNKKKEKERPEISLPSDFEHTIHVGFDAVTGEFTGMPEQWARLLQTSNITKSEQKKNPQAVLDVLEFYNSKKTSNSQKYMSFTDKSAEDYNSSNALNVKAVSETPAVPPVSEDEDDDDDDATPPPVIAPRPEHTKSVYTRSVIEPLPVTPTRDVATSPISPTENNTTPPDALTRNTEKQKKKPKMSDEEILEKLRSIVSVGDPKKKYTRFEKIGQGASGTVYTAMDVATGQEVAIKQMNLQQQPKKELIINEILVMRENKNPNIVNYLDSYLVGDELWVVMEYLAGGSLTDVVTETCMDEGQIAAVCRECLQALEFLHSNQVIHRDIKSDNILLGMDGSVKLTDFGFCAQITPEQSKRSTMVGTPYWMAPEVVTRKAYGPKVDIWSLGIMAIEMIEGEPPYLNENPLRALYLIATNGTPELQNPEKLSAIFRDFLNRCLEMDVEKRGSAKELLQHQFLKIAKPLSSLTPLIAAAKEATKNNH

The target in test [4] is T2, PAK2. As to the kind of experiment: PAK2 degradation in MCF7 and OVCAR3 cells, immunoblot. It counts as cell-based. Further details: due to their high expression of both PAK1 and PAK2; endogenous in cells; host or cells: MCF7, OVCAR3. The method, then:
[…]. Cells were incubated overnight then treated with various concentrations of Pak degraders alone or together with bortezomib or lenalidomide for 24 hours. Protein lysates were harvested at the times specified.
Cells were washed once in PBS and lysed in RIPA buffer (50 mM Tris-HCl, 150 mM NaCl, 0.25% (w/v) sodium deoxycholate, 1% (w/v) NP-40, pH 7.5) containing protease inhibitor cocktail (Roche) and phosphatase inhibitor cocktail (Roche) for 30 minutes on ice. Cell lysates were obtained by centrifugation at 13,500 rpm for 15 minutes at 4° C. BCA protein assay (Thermo Scientific) was used to determine protein concentration then equal amounts of total proteins were separated by SDS-PAGE (Bio-Rad) and transferred to PVDF membrane (Thermo Scientific) at 100V for 2 hours. Membranes were blocked in 5% (w/v) non-fat dry milk in tris-buffered saline with 0.1% Tween-20 (TBS-T) for 1 hour and incubated with primary antibody at 4° C. for overnight. […]
After verifying that BJG-05-039 retained specificity for PAK1, its degradation activity in cells was characterized. First, the PAK1 degrader was evaluated in the breast cancer cell line MCF7 and the ovarian cancer cell line OVCAR3 due to their high expression of both PAK1 and PAK2 and their known dependence on PAK1 (Prudnikova, et al. (2016) Oncogene 35:2178-2185; Shrestha, et al. (2012) Oncogene 31:3397-3408). […]
Background: A western blot detects proteins with antibodies after separation by electrophoresis.

Molecules are shown by their SMILES.

Broadly, the IC50 is the concentration needed to halve the response being measured.

T2 sequence (Q13177 whole entry, the tested form may be a part): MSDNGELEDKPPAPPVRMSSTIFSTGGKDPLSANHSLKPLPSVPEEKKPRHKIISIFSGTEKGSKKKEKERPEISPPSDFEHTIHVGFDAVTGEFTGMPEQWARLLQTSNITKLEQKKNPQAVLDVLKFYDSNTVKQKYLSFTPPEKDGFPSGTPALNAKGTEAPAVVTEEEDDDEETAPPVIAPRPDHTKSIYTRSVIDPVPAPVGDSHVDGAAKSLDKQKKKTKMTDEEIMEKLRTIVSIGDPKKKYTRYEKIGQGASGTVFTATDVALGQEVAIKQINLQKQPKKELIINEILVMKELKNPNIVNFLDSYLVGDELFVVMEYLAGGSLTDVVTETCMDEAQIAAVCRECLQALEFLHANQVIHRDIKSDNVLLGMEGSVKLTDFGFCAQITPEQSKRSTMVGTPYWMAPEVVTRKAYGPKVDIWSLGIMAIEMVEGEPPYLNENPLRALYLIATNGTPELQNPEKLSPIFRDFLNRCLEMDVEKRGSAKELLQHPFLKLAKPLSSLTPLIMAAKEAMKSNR
Chain of PAK4 (O96013 whole entry): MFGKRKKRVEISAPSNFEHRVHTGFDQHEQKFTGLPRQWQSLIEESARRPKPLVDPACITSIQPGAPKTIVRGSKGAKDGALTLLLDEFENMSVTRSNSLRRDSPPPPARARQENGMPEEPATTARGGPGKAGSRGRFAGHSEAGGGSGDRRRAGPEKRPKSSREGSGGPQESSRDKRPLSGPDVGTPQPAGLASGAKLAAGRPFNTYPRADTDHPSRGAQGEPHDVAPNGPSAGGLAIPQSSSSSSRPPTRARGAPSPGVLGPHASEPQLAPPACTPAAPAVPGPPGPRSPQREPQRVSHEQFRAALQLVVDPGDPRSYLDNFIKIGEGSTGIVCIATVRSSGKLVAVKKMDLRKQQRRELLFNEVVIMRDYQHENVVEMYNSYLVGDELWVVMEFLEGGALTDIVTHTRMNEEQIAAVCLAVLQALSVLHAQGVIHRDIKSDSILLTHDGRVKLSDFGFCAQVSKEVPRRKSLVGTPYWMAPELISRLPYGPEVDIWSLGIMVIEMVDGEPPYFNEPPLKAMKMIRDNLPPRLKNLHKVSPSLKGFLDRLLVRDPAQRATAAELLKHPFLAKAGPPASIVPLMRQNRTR

Consider `O=C1CCC(N2C(=O)c3cccc(NCCOCCOCCC(=O)N4CC[C@H](NC5=Nc6cc(F)ccc6N(CC(F)F)c6ccc(Cl)cc65)C4)c3C2=O)C(=O)N1` (some centres unmarked) [BJG-05-014], for which the IC50 on PAK4 was determined as 152 nM; on PAK1 [1] it was 432 nM; at PAK2 [2], 724 nM. The “PAK1 inhibitory activity and selectivity of conjugate” value on PAK1 [1] was “retained PAK1 inhibitory activity and selectivity”.
For the molecule `O=C1CCC(N2C(=O)c3cccc(NCCCCCCC(=O)N4CC[C@H](NC5=Nc6cc(F)ccc6N(CC(F)F)c6ccc(Cl)cc65)C4)c3C2=O)C(=O)N1` (some centres unmarked) [BJG-05-017], the values for the half-maximal inhibitory concentration (IC50) against PAK4, at PAK1 [1] and against PAK2 [2] were above 1000 nM, above 1110 nM and above 3330 nM, respectively.
The matching figures for `O=C(COc1cccc2c1C(=O)N(C1CCC(=O)NC1=O)C2=O)NCCCCCCC(=O)N1CC[C@H](NC2=Nc3cc(F)ccc3N(CC(F)F)c3ccc(Cl)cc32)C1` (some centres unmarked) [BJG-05-018]: above 10000 nM, above 3330 nM and above 10000 nM.
The matching figures for `O=C1CCC(N2C(=O)c3cccc(NCCCC(=O)N4CC[C@H](NC5=Nc6cc(F)ccc6N(CC(F)F)c6ccc(Cl)cc65)C4)c3C2=O)C(=O)N1` (some centres unmarked) [BJG-05-019]: above 10000 nM, 6300 nM and above 10000 nM.
In the same order, the values of `Cc1ncsc1-c1ccc([C@H](C)NC(=O)C2C[C@@H](O)CN2C(=O)[C@@H](NC(=O)CCCCCCCC(=O)N2CC[C@H](NC3=Nc4cc(F)ccc4N(CC(F)F)c4ccc(Cl)cc43)C2)C(C)(C)C)cc1` (some centres unmarked) [BJG-05-020] are above 10000 nM, above 10000 nM and above 10000 nM.
Take `O=C1CCC(N2C(=O)c3cccc(NCCOCCOCCNC(=O)N4CC[C@H](NC5=Nc6cc(F)ccc6N(CC(F)F)c6ccc(Cl)cc65)C4)c3C2=O)C(=O)N1` (some centres unmarked) [BJG-05-022]: the IC50 on PAK4 is 3860 nM; on PAK1 [1] it was 1490 nM; on PAK2 [2], 6750 nM.
With `O=C1CCC(N2C(=O)c3cccc(NCCCCCNC(=O)N4CC[C@H](NC5=Nc6cc(F)ccc6N(CC(F)F)c6ccc(Cl)cc65)C4)c3C2=O)C(=O)N1` (some centres unmarked) [BJG-05-027], the IC50 is above 10000 nM against PAK4, 594 nM at PAK1 [1] and above 10000 nM against PAK2 [2]. For the same molecule, the “PAK1 inhibitory activity and selectivity of conjugate” value on PAK1 [1] is “retained PAK1 inhibitory activity and selectivity”.
For the molecule `Cc1ccc(CO)cc1N(Cc1ccccc1C#N)c1nc(Nc2ccc(N3CCN(CCOCCOCCNc4cccc5c4C(=O)N(C4CCC(=O)NC4=O)C5=O)CC3)c(S(C)(=O)=O)c2)ncc1F` (centres unmarked) [BJG-05-093, 2-(((2-((4-(4-(2-(2-(2-((2-(2,6-Dioxopiperidin-3-yl)-1,3-dioxoisoindolin-4-yl)amino)ethoxy)ethoxy)ethyl)piperazin-1-yl)-3-(methylsulfonyl)phenyl)amino)-5-fluoropyrimidin-4-yl)(5-(hydroxymethyl)-2-methylphenyl)amino)methyl)benzonitrile], at PAK1 [1], the 50% inhibitory concentration (IC50) was 32.5 nM.
For the molecule `Cc1ccc(CO)cc1N(Cc1ccccc1C#N)c1nc(Nc2ccc(N3CCN(C(=O)CCOCCOCCNc4cccc5c4C(=O)N(C4CCC(=O)NC4=O)C5=O)CC3)c(S(C)(=O)=O)c2)ncc1F` (centres unmarked) [BJG-05-094, 2-(((2-((4-(4-(3-(2-(2-((2-(2,6-Dioxopiperidin-3-yl)-1,3-dioxoisoindolin-4-yl)amino)ethoxy)ethoxy)propanoyl)piperazin-1-yl)-3-(methylsulfonyl)phenyl)amino)-5-fluoropyrimidin-4-yl)(5-(hydroxymethyl)-2-methylphenyl)amino)methyl)benzonitrile], the IC50 at PAK1 [1] turned out to be 103 nM.
Same read-out and setting: the value for `Cc1ccc(CO)cc1N(Cc1ccccc1C#N)c1nc(Nc2ccc(N3CCN(CCOCCOCCOCCOCCNc4cccc5c4C(=O)N(C4CCC(=O)NC4=O)C5=O)CC3)c(S(C)(=O)=O)c2)ncc1F` (centres unmarked) [BJG-05-095, 2-(((2-((4-(4-(14-((2-(2,6-Dioxopiperidin-3-yl)-1,3-dioxoisoindolin-4-yl)amino)-3,6,9,12-tetraoxatetradecyl)piperazin-1-yl)-3-(methylsulfonyl)phenyl)amino)-5-fluoropyrimidin-4-yl)(5-(hydroxymethyl)-2-methylphenyl)amino)methyl)benzonitrile] was 36.6 nM.
On to `CN1C(=O)CCC(N2C(=O)c3cccc(NCCCCCCCCNC(=O)N4CC[C@H](NC5=Nc6cc(F)ccc6N(CC(F)F)c6ccc(Cl)cc65)C4)c3C2=O)C1=O` (stereo partly drawn) [BJG-05-098, (3S)-3-((2-Chloro-5-(2,2-difluoroethyl)-8-fluoro-5H-dibenzo[b,e][1,4]diazepin-11-yl)amino)-N-(8-((2-(J-methyl-2,6-dioxopiperidin-3-yl)-1,3-dioxoisoindolin-4-yl)amino)octyl)pyrrolidine-1-carboxamide], for which the “Effect on cell proliferation” value in the test with MCF7 cells and with OVCAR3 cells was “did not affect cell proliferation” each time. The PAK1 degradation entry at PAK1 [3] is on record as “PAK1 degradation was not observed”. For the same molecule, the PAK2 degradation entry at PAK2 [4] is reported as “did not induce degradation of PAK1 or PAK2”.
`Nc1cccc2c1CN(C1CCC(=O)NC1=O)C2=O` (centres unmarked) [lenalidomide, reference compound]: the “Effect on cell proliferation” value with MCF7 cells and in the test on OVCAR3 cells was “lacked significant antiproliferative effects” each time.
